Legend:
Full length Human HDAC6 = molecular target: T1, Full length Human HDAC6 (Homo sapiens, UniProt Q9UBN7); experiment: Caliper endpoint assay for HDAC enzymatic activity (HDAC6); format: biochemical; settings: for IC50: in vitro enzymatic, Caliper endpoint assay, 30 min pre-incubation, 1 μM substrate peptide; for Selectivity (6 v 8): ratio of HDAC8 IC50/HDAC6 IC50
T1 construct: Full length Human HDAC6; FLAG (C); host or cells: baculovirus expression system
T1 sequence (Q9UBN7 1-1215): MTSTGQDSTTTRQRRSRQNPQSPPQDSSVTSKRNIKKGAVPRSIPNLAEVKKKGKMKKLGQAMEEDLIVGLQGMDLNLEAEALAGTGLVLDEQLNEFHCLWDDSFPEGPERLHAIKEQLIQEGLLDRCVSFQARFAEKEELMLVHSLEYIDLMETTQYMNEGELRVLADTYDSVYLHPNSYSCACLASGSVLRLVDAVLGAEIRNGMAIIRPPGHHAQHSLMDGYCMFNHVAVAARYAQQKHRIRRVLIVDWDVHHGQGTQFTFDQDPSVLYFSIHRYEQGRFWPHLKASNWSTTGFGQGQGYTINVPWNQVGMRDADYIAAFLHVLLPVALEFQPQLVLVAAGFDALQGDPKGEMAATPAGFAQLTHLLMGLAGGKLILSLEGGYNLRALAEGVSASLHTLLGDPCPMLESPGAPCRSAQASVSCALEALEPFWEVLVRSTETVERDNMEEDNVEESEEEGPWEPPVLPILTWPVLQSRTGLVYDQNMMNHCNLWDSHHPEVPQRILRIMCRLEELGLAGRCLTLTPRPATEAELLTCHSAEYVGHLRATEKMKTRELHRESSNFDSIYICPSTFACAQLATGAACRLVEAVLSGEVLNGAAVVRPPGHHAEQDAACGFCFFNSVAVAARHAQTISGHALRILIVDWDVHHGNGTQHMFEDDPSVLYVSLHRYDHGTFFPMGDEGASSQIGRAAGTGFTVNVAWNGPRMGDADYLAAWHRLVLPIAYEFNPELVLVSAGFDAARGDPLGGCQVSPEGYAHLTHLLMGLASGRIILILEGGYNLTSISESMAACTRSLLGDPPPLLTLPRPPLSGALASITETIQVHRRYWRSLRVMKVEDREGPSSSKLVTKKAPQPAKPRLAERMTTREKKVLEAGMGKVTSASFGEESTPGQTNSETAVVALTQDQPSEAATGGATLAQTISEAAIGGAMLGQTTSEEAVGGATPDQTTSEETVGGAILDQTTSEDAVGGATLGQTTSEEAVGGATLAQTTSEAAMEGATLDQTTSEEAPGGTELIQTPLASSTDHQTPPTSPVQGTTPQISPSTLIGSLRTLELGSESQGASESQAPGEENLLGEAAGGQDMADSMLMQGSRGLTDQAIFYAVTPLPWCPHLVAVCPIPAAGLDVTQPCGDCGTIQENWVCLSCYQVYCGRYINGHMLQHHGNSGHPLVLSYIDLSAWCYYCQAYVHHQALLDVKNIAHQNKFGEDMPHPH

Full length Human HDAC8 = molecular target: T2, Full length Human HDAC8 (Homo sapiens, UniProt Q9BY41); experiment: Caliper endpoint assay for HDAC enzymatic activity (HDAC8); format: biochemical; settings: in vitro enzymatic, 30 min pre-incubation, 1 μM substrate peptide
T2 construct: Full length Human HDAC8; HIS (N); host or cells: baculovirus expression system
T2 sequence (Q9BY41 1-377): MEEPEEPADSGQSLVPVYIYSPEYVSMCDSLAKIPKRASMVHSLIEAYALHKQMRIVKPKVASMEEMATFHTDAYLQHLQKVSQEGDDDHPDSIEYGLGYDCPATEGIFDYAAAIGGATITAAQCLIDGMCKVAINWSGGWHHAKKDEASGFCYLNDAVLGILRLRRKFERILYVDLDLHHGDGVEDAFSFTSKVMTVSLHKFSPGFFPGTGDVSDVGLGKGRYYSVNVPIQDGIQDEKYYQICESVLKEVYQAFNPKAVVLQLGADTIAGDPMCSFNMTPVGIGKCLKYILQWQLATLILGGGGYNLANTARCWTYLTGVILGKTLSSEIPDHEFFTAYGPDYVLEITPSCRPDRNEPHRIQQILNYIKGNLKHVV

Row | SMILES | IC50 (Full length Human HDAC6) | Selectivity (6 v 8) (Full length Human HDAC6) | IC50 (Full length Human HDAC8)
1 | CC[C@H]1Cc2c(F)cc(C(=O)NO)cc2CN1C1CCC1 (single isomer, unassigned) [Compound 597] | 100 to 1000 nM | IV (IV: >100-1000) | 10000 to 100000 nM
2 | CC[C@H]1Cc2c(F)cc(C(=O)NO)cc2CN1C1CC2(CCN(C3CC3)CC2)C1 (single isomer, unassigned) [Compound 599] | 100 to 1000 nM | IV (IV: >100-1000) | 10000 to 100000 nM
3 | O=C(NO)c1cc(F)c2c(c1)CCN([C@H]1C[C@@]3(CCCCO3)C1)C2 (single isomer, unassigned) [Compound 340, 8-fluoro-2-(5-oxaspiro[3.5]nonan-2-yl)-3,4-dihydro-1H-isoquinoline-6-carbohydroxamic acid] | 1 to 100 nM | V (V: >1000) | 10000 to 100000 nM
4 | CN1CCC[C@]2(C1)C[C@H](N1CCc3cc(C(=O)NO)cc(F)c3C1)C2 (single isomer, unassigned) [Compound 344, 8-fluoro-N-hydroxy-2-((2s,4r)-6-methyl-6-azaspiro[3.5]nonan-2-yl)-1,2,3,4-tetrahydroisoquinoline-6-carboxamide] | 1 to 100 nM | IV (IV: >100-1000) | 10000 to 100000 nM
5 | O=C(NO)c1cc(F)c2c(c1)CCN(C1CCC3(CC1)COC3)C2 [Compound 425, 8-fluoro-2-(2-oxaspiro[3.5]nonan-7-yl)-3,4-dihydro-1H-isoquinoline-6-carbohydroxamic acid] | 1 to 100 nM | V (V: >1000) | 10000 to 100000 nM
6 | O=C(NO)c1cc(F)c2c(c1)CN1CCC[C@@H]1C2 [Compound 124] | 1 to 100 nM | IV (IV: >100-1000) | 1000 to 10000 nM
7 | CC(C)N1CC2(CCCCC2)CC[C@@H]1Cc1cc(F)cc(C(=O)NO)c1 (single isomer, unassigned) [Compound 275] | 1000 to 10000 nM | I (I: 0.1-1) | 1000 to 10000 nM
8 | O=C(NO)c1cc(F)c2c(c1)CCN([C@H]1CCN(Cc3ccccc3)C3(CCC3)C1)C2 (single isomer, unassigned) [Compound 443] | 1 to 100 nM | IV (IV: >100-1000) | 10000 to 100000 nM
9 | O=C(NO)c1cc(F)c2c(c1)CN(C[C@H]1CCCCO1)CC2 (single isomer, unassigned) [Compound 215] | 1 to 100 nM | II (II: >1-10) | 100 to 1000 nM
10 | O=C(NO)c1ccc2c(c1)CCN1CCC[C@H]21 [Compound 148] | 1000 to 10000 nM | II (II: >1-10) | 1000 to 10000 nM
11 | C[C@H]1CC[C@H]2c3c(F)cc(C(=O)NO)cc3CCN12 (single isomer, unassigned) [Compound 157] | 1 to 100 nM |  | 1000 to 10000 nM
12 | O=C(NO)c1cc(F)c2c(c1)CN(CC13CC4CC(CC(C4)O1)C3)CC2 [Compound 213, 2-(((1r,3s,5R,7S)-2-oxaadamantan-1-yl)methyl)-5-fluoro-N-hydroxy-1,2,3,4-tetrahydroisoquinoline-7-carboxamide] | 1 to 100 nM | III (III: >10-100) | 100 to 1000 nM
13 | CN1CC2(CCC2N2CCc3cc(C(=O)NO)cc(F)c3C2)C1 (centres unmarked) [Compound 302, 8-fluoro-2-(2-methyl-2-azaspiro[3.3]heptan-7-yl)-3,4-dihydro-1H-isoquinoline-6-carbohydroxamic acid] | 1 to 100 nM | IV (IV: >100-1000) | 1000 to 10000 nM
14 | O=C(NO)c1cc(F)c2c(c1)CCN(C1CC3(CNC3)C1)C2 [Compound 289, 2-(2-azaspiro[3.3]heptan-6-yl)-8-fluoro-3,4-dihydro-1H-isoquinoline-6-carbohydroxamic acid] | 1 to 100 nM | IV (IV: >100-1000) | 1000 to 10000 nM

Reference: patent US12655106B2 (Eikonizo Therapeutics, Inc., priority 2021, dated 2026)
